PubChem BioAssay AID276 (DTP/NCI, 2004)
Values joined by “and” are separate entries in the source; they are usually repeats but may differ in a detail not shown here. Equal values may be shown once. Inconclusive results and toxic doses are left out. The calls were made as follows: active = survival T/C of 150% or more; inactive = T/C below 125% in these data.

Tested on: B6C3F1 mice, Lewis lung carcinoma iv, survival T/C
Test: NCI In Vivo Anticancer Drug Screen. Data for tumor model Lewis Lung Carcinoma (intravenous) in B6C3F1 mice
Conditions: endpoint: median survival time, schedule: Q01DX009 (ip), higher = longer survival
Procedure: The antitumor activity of compounds was measured in mice bearing transplantable tumors. Survival or tumor size were measured and the results are expressed as the measurement made in the treated group (T) divided by the measurement made in the vehicle treated control group (C). The tumor model used in this assay is Lewis Lung Carcinoma (intravenous) in B6C3F1 mice

[1] = dose: 6.25 mg/kg/injection, vehicle: saline with Tween-80
[2] = dose: 12.5 mg/kg/injection, vehicle: saline with Tween-80
[3] = dose: 25.0 mg/kg/injection, vehicle: saline with Tween-80
[4] = dose: 50.0 mg/kg/injection, vehicle: saline with Tween-80
[5] = dose: 100.0 mg/kg/injection, vehicle: saline with Tween-80
[6] = dose: 12.5 mg/kg/injection, vehicle: saline
[7] = dose: 25.0 mg/kg/injection, vehicle: saline
[8] = dose: 50.0 mg/kg/injection, vehicle: saline
[9] = dose: 100.0 mg/kg/injection, vehicle: saline
[10] = dose: 200.0 mg/kg/injection, vehicle: saline
[11] = dose: 400.0 mg/kg/injection, vehicle: saline

Measured: T/C

COc1cc(NCc2ccc3nc(N)nc(N)c3c2C)cc(OC)c1OC
inactive: dose: 3.12 mg/kg/injection, vehicle: water 94 % of control | dose: 6.25 mg/kg/injection, vehicle: water 102 % of control | dose: 12.5 mg/kg/injection, vehicle: water 97 % of control and 124 % of control | dose: 25.0 mg/kg/injection, vehicle: water 101 % of control and 111 % of control | dose: 50.0 mg/kg/injection, vehicle: water 113 % of control and 117 % of control

Nc1nc2ccc(NCc3ccc(C(=O)NC(CCC(=O)O)C(=O)O)cc3)cc2c(=O)[nH]1 (configuration not stated)
inactive: [1] 111 % of control | [2] 97 % of control | [3] 100 % of control | [4] 116 % of control | [5] 119 % of control

O=C(O)C(O)C(O)C1[O][Sb][O]C1C(=O)O (configuration not stated)
inactive: dose: 6.25 mg/kg/injection, vehicle: saline 103 % of control | [6] 108 % of control | [7] 98 % of control | [8] 108 % of control

COc1ccc(S(=O)(=O)N=N/C=C2\C=CC=CN2O)cc1OC
inactive: dose: 3.12 mg/kg/injection, vehicle: saline with Tween-80 92 % of control | [1] 100 % of control | [2] 98 % of control | [3] 93 % of control | [4] 106 % of control

Cc1[nH]ccc(=O)c1O
inactive: dose: 16.0 mg/kg/injection, vehicle: saline with Tween-80 87 % of control | dose: 32.0 mg/kg/injection, vehicle: saline with Tween-80 95 % of control | dose: 64.0 mg/kg/injection, vehicle: saline with Tween-80 101 % of control | dose: 128.0 mg/kg/injection, vehicle: saline with Tween-80 108 % of control | dose: 256.0 mg/kg/injection, vehicle: saline with Tween-80 99 % of control

C=CCc1cn(C2CC(O)C(CO)O2)c(=O)[nH]c1=O (configuration not stated)
inactive: [6] 100 % of control | [7] 88 % of control | [8] 87 % of control | [9] 100 % of control | [10] 96 % of control | [11] 98 % of control

COc1ccc(Cl)[n+]([O-])n1
inactive: dose: 0.39 mg/kg/injection, vehicle: Klucel (hydroxypropylcellulose) (HPC) 98 % of control | dose: 0.78 mg/kg/injection, vehicle: Klucel (hydroxypropylcellulose) (HPC) 91 % of control | dose: 1.56 mg/kg/injection, vehicle: Klucel (hydroxypropylcellulose) (HPC) 103 % of control | dose: 3.12 mg/kg/injection, vehicle: Klucel (hydroxypropylcellulose) (HPC) 96 % of control | dose: 6.25 mg/kg/injection, vehicle: Klucel (hydroxypropylcellulose) (HPC) 100 % of control and 88 % of control | dose: 12.5 mg/kg/injection, vehicle: Klucel (hydroxypropylcellulose) (HPC) 99 % of control and 105 % of control | dose: 25.0 mg/kg/injection, vehicle: Klucel (hydroxypropylcellulose) (HPC) 107 % of control | dose: 50.0 mg/kg/injection, vehicle: Klucel (hydroxypropylcellulose) (HPC) 112 % of control

N#CCCSC(=S)C1CCCC1=N (configuration not stated)
inactive: [2] 99 % of control | [3] 103 % of control | [4] 98 % of control | [5] 103 % of control | dose: 200.0 mg/kg/injection, vehicle: saline with Tween-80 105 % of control | dose: 400.0 mg/kg/injection, vehicle: saline with Tween-80 106 % of control

O=C(O)C1CC(O)CN1 (configuration not stated)
inactive: [8] 98 % of control | [9] 91 % of control | [10] 91 % of control | [11] 114 % of control | dose: 800.0 mg/kg/injection, vehicle: saline 109 % of control

O=C1c2c(O)ccc(O)c2C(=O)c2c(NCCNCCO)ccc(NCCNCCO)c21
inactive: dose: 0.12 mg/kg/injection, vehicle: saline 94 % of control | dose: 0.12 mg/kg/injection, vehicle: water 104 % of control | dose: 0.25 mg/kg/injection, vehicle: saline 101 % of control | dose: 0.25 mg/kg/injection, vehicle: water 106 % of control | dose: 0.5 mg/kg/injection, vehicle: saline 100 % of control | dose: 0.5 mg/kg/injection, vehicle: water 110 % of control | dose: 1.0 mg/kg/injection, vehicle: saline 123 % of control | dose: 1.0 mg/kg/injection, vehicle: water 120 % of control
